Laboratory results taken from patent publication US7820623B2 (priority 2006, dated 2010).
Bridge positions count the residues as written; N and C are the ends. Square brackets hold non-standard residues; d marks the D form. Peptide text beside a SMILES is read from it. 1Nal = N[C@@H](Cc1cccc2ccccc12)C(=O)O

Experiments:
[1] = test system: thapsigargin-induced IFN-g production in human whole blood; format: cell-based; conditions: read-out: Analogue Activity (IC50) WB/IFNg
[2] = test system: thapsigargin-induced IL-2 production in human whole blood; conditions: read-out: Analogue Activity (IC50) WB/IL-2

| SMILES | IC50 [1] [nM] | IC50 [2] [nM] |
| --- | --- | --- |
| CC[C@H](C)[C@@H]1NC(=O)[C@H](CCCCN)NC(=O)[C@@H](NC(=O)[C@H](CCCCN)NC(=O)[C@@H](NC(=O)[C@H](CC(N)=O)NC(=O)[C@@H](NC(=O)[C@@H](NC(=O)[C@@H](NC(=O)CN)C(C)C)[C@@H](C)CC)[C@@H](C)CC)C(C)C)CSSC[C@@H]2NC(=O)[C@H](CCCCN)NC(=O)[C@H](C)NC(=O)[C@H](Cc3ccccc3)NC(=O)[C@H](CCCNC(=N)N)NC(=O)[C@H](CCSC)NC(=O)CNC(=O)[C@H](C)NC(=O)[C@H](CCCCN)NC(=O)[C@H](CCCCN)NC(=O)[C@@H]3CSSC[C@@H](C(=O)N[C@H](C(=O)N4CCC[C@H]4C(=O)N[C@@H](CCCCN)C(=O)O)[C@@H](C)O)NC(=O)[C@H](Cc4c[nH]cn4)NC(=O)[C@H](CSSC[C@H](NC(=O)[C@H](CCC(N)=O)NC(=O)[C@H](CCCNC(=N)N)NC(=O)[C@H](CO)NC1=O)C(=O)N[C@@H](CC(C)C)C(=O)N[C@@H](CCC(=O)O)C(=O)N1CCC[C@H]1C(=O)N3)NC(=O)[C@H](CCCCN)NC(=O)CNC(=O)[C@H](CC(N)=O)NC(=O)[C@H](CCSC)NC2=O [G26A] (H-GVIINVKCKISRQCLEPCKKAGMRFAKCMNGKCHCTPK-OH; disulfide 8-28, 14-33, 18-35) | 10.7 | 12.1 |
| CC[C@H](C)[C@@H]1NC(=O)[C@H](CCCCN)NC(=O)[C@@H](NC(=O)[C@H](CCCCN)NC(=O)[C@@H](NC(=O)[C@H](CC(N)=O)NC(=O)[C@@H](NC(=O)[C@@H](NC(=O)[C@@H](NC(=O)CN)C(C)C)[C@@H](C)CC)[C@@H](C)CC)C(C)C)CSSC[C@@H]2NC(=O)[C@H](CCCCN)NC(=O)[C@H](Cc3cccc4ccccc34)NC(=O)[C@H](Cc3ccccc3)NC(=O)[C@H](CCCNC(=N)N)NC(=O)[C@H](CCSC)NC(=O)CNC(=O)[C@H](C)NC(=O)[C@H](CCCCN)NC(=O)[C@H](CCCCN)NC(=O)[C@@H]3CSSC[C@@H](C(=O)N[C@H](C(=O)N4CCC[C@H]4C(=O)N[C@@H](CCCCN)C(=O)O)[C@@H](C)O)NC(=O)[C@H](Cc4c[nH]cn4)NC(=O)[C@H](CSSC[C@H](NC(=O)[C@H](CCC(N)=O)NC(=O)[C@H](CCCNC(=N)N)NC(=O)[C@H](CO)NC1=O)C(=O)N[C@@H](CC(C)C)C(=O)N[C@@H](CCC(=O)O)C(=O)N1CCC[C@H]1C(=O)N3)NC(=O)[C@H](CCCCN)NC(=O)CNC(=O)[C@H](CC(N)=O)NC(=O)[C@H](CCSC)NC2=O [G26Nal] (H-GVIINVKCKISRQCLEPCKKAGMRF[1Nal]KCMNGKCHCTPK-OH; disulfide 8-28, 14-33, 18-35) | 10.7 | 9.9 |
| CC[C@H](C)[C@@H]1NC(=O)[C@H](CCCCN)NC(=O)[C@@H](NC(=O)[C@H](CCCCN)NC(=O)[C@@H](NC(=O)[C@H](CC(N)=O)NC(=O)[C@@H](NC(=O)[C@@H](NC(=O)[C@@H](NC(=O)CN)C(C)C)[C@@H](C)CC)[C@@H](C)CC)C(C)C)CSSC[C@@H]2NC(=O)[C@H](CCCCN)NC(=O)CNC(=O)[C@H](Cc3ccccc3)NC(=O)[C@H](CCCNC(=N)N)NC(=O)[C@H](CCSC)NC(=O)CNC(=O)[C@H](C)NC(=O)[C@H](CCCCN)NC(=O)[C@H](CCCCN)NC(=O)[C@@H]3CSSC[C@@H](C(=O)N[C@H](C(=O)N4CCC[C@H]4C(=O)N[C@@H](CCCCN)C(=O)O)[C@@H](C)O)NC(=O)[C@H](Cc4c[nH]cn4)NC(=O)[C@H](CSSC[C@H](NC(=O)[C@H](CCC(N)=O)NC(=O)[C@H](CCCNC(=N)N)NC(=O)[C@H](CO)NC1=O)C(=O)N[C@@H](CC(C)C)C(=O)N[C@@H](CCC(=O)O)C(=O)N1CCC[C@H]1C(=O)N3)NC(=O)[C@H](CCCCN)NC(=O)[C@H](CCC(=O)O)NC(=O)[C@H](CC(N)=O)NC(=O)[C@H](CCSC)NC2=O [G31E] (H-GVIINVKCKISRQCLEPCKKAGMRFGKCMNEKCHCTPK-OH; disulfide 8-28, 14-33, 18-35) | 0.111 | 0.095 |
| CC[C@H](C)[C@@H]1NC(=O)[C@H](CCCCN)NC(=O)[C@@H](NC(=O)[C@H](CCCCN)NC(=O)[C@@H](NC(=O)[C@H](CC(N)=O)NC(=O)[C@@H](NC(=O)[C@@H](NC(=O)[C@@H](NC(=O)CN)C(C)C)[C@@H](C)CC)[C@@H](C)CC)C(C)C)CSSC[C@@H]2NC(=O)[C@H](CCCCN)NC(=O)CNC(=O)[C@H](Cc3ccccc3)NC(=O)[C@H](CCCNC(=N)N)NC(=O)[C@H](CCSC)NC(=O)CNC(=O)[C@H](C)NC(=O)[C@H](CCCCN)NC(=O)[C@H](CCCCN)NC(=O)[C@@H]3CSSC[C@@H](C(=O)N[C@H](C(=O)N4CCC[C@H]4C(=O)N[C@@H](CCCCN)C(=O)O)[C@@H](C)O)NC(=O)[C@H](Cc4c[nH]cn4)NC(=O)[C@H](CSSC[C@H](NC(=O)[C@H](CCC(N)=O)NC(=O)[C@H](CCCNC(=N)N)NC(=O)[C@H](CO)NC1=O)C(=O)N[C@@H](CC(C)C)C(=O)N[C@@H](CCC(=O)O)C(=O)N1CCC[C@H]1C(=O)N3)NC(=O)[C@H](CCCCN)NC(=O)[C@H](Cc1cccc3ccccc13)NC(=O)[C@H](CC(N)=O)NC(=O)[C@H](CCSC)NC2=O [G31Nal] (H-GVIINVKCKISRQCLEPCKKAGMRFGKCMN[1Nal]KCHCTPK-OH; disulfide 8-28, 14-33, 18-35) | 0.467 | 0.331 |
| CC[C@H](C)[C@@H]1NC(=O)[C@H](CCCCN)NC(=O)[C@@H](NC(=O)[C@H](CCCCN)NC(=O)[C@@H](NC(=O)[C@H](CC(N)=O)NC(=O)[C@@H](NC(=O)[C@@H](NC(=O)[C@@H](NC(=O)CN)C(C)C)[C@@H](C)CC)[C@@H](C)CC)C(C)C)CSSC[C@@H]2NC(=O)[C@H](CCCCN)NC(=O)CNC(=O)[C@H](Cc3ccccc3)NC(=O)[C@H](CCCNC(=N)N)NC(=O)[C@H](CCSC)NC(=O)CNC(=O)[C@H](C)NC(=O)[C@H](CCCCN)NC(=O)[C@H](CCCCN)NC(=O)[C@@H]3CSSC[C@@H](C(=O)N[C@H](C(=O)N4CCC[C@H]4C(=O)N[C@@H](CCCCN)C(=O)O)[C@@H](C)O)NC(=O)[C@H](Cc4c[nH]cn4)NC(=O)[C@H](CSSC[C@H](NC(=O)[C@H](CCC(N)=O)NC(=O)[C@H](CCCNC(=N)N)NC(=O)[C@H](CO)NC1=O)C(=O)N[C@@H](CC(C)C)C(=O)N[C@@H](CCC(=O)O)C(=O)N1CCC[C@H]1C(=O)N3)NC(=O)[C@H](CCCCN)NC(=O)[C@H](CCCNC(=N)N)NC(=O)[C@H](CC(N)=O)NC(=O)[C@H](CCSC)NC2=O [G31R] | 0.343 | 0.314 |
| CC[C@H](C)[C@@H]1NC(=O)[C@H](CCCCN)NC(=O)[C@@H](NC(=O)[C@H](CCCCN)NC(=O)[C@@H](NC(=O)[C@H](CC(N)=O)NC(=O)[C@@H](NC(=O)[C@@H](NC(=O)[C@@H](NC(=O)CN)C(C)C)[C@@H](C)CC)[C@@H](C)CC)C(C)C)CSSC[C@@H]2NC(=O)[C@H](CCCCN)NC(=O)CNC(=O)[C@H](Cc3ccccc3)NC(=O)[C@H](CCCNC(=N)N)NC(=O)[C@H](CCSC)NC(=O)CNC(=O)[C@H](C)NC(=O)[C@H](CCCCN)NC(=O)[C@H](CCCCN)NC(=O)[C@@H]3CSSC[C@@H](C(=O)N[C@H](C(=O)N4CCC[C@H]4C(=O)N[C@@H](CCCCN)C(=O)O)[C@@H](C)O)NC(=O)[C@H](CCCNC(=N)N)NC(=O)[C@H](CSSC[C@H](NC(=O)[C@H](CCC(N)=O)NC(=O)[C@H](CCCNC(=N)N)NC(=O)[C@H](CO)NC1=O)C(=O)N[C@@H](CC(C)C)C(=O)N[C@@H](CCC(=O)O)C(=O)N1CCC[C@H]1C(=O)N3)NC(=O)[C@H](CCCCN)NC(=O)CNC(=O)[C@H](CC(N)=O)NC(=O)[C@H](CCSC)NC2=O [H34R] (H-GVIINVKCKISRQCLEPCKKAGMRFGKCMNGKCRCTPK-OH; disulfide 8-28, 14-33, 18-35) | 0.108 | 0.092 |
| CC[C@H](C)[C@H](NC(=O)[C@H](C)NC(=O)[C@@H](NC(=O)CN)C(C)C)C(=O)N[C@@H](CC(N)=O)C(=O)N[C@H](C(=O)N[C@@H](CCCCN)C(=O)N[C@H]1CSSC[C@@H]2NC(=O)[C@H](CCCCN)NC(=O)CNC(=O)[C@H](Cc3ccccc3)NC(=O)[C@H](CCCNC(=N)N)NC(=O)[C@H](CCSC)NC(=O)CNC(=O)[C@H](C)NC(=O)[C@H](CCCCN)NC(=O)[C@H](CCCCN)NC(=O)[C@@H]3CSSC[C@@H](C(=O)N[C@H](C(=O)N4CCC[C@H]4C(=O)N[C@@H](CCCCN)C(=O)O)[C@@H](C)O)NC(=O)[C@H](Cc4c[nH]cn4)NC(=O)[C@H](CSSC[C@H](NC(=O)[C@H](CCC(N)=O)NC(=O)[C@H](CCCNC(=N)N)NC(=O)[C@H](CO)NC(=O)[C@H]([C@@H](C)CC)NC(=O)[C@H](CCCCN)NC1=O)C(=O)N[C@@H](CC(C)C)C(=O)N[C@@H](CCC(=O)O)C(=O)N1CCC[C@H]1C(=O)N3)NC(=O)[C@H](CCCCN)NC(=O)CNC(=O)[C@H](CC(N)=O)NC(=O)[C@H](CCSC)NC2=O)C(C)C [I3A] (H-GVAINVKCKISRQCLEPCKKAGMRFGKCMNGKCHCTPK-OH; disulfide 8-28, 14-33, 18-35) | 0.0992 | 0.0883 |
| CC[C@H](C)[C@@H]1NC(=O)[C@H](CCCCN)NC(=O)[C@@H](NC(=O)[C@H](CCCCN)NC(=O)[C@@H](NC(=O)[C@H](CC(N)=O)NC(=O)[C@@H](NC(=O)[C@H](CCC(=O)O)NC(=O)[C@@H](NC(=O)CN)C(C)C)[C@@H](C)CC)C(C)C)CSSC[C@@H]2NC(=O)[C@H](CCCCN)NC(=O)CNC(=O)[C@H](Cc3ccccc3)NC(=O)[C@H](CCCNC(=N)N)NC(=O)[C@H](CCSC)NC(=O)CNC(=O)[C@H](C)NC(=O)[C@H](CCCCN)NC(=O)[C@H](CCCCN)NC(=O)[C@@H]3CSSC[C@@H](C(=O)N[C@H](C(=O)N4CCC[C@H]4C(=O)N[C@@H](CCCCN)C(=O)O)[C@@H](C)O)NC(=O)[C@H](Cc4c[nH]cn4)NC(=O)[C@H](CSSC[C@H](NC(=O)[C@H](CCC(N)=O)NC(=O)[C@H](CCCNC(=N)N)NC(=O)[C@H](CO)NC1=O)C(=O)N[C@@H](CC(C)C)C(=O)N[C@@H](CCC(=O)O)C(=O)N1CCC[C@H]1C(=O)N3)NC(=O)[C@H](CCCCN)NC(=O)CNC(=O)[C@H](CC(N)=O)NC(=O)[C@H](CCSC)NC2=O [I3E] (H-GVEINVKCKISRQCLEPCKKAGMRFGKCMNGKCHCTPK-OH; disulfide 8-28, 14-33, 18-35) | 0.16 | 0.12 |
